We go through seven molecules from ChEMBL document CHEMBL1150320, “Novel ORL1-selective antagonists with oral bioavailability and brain penetrability” (Bioorg Med Chem Lett, 2008).

Some results are limits rather than exact numbers.

Data set [1] has as its target T1, Nociceptin receptor (Homo sapiens, UniProt P41146). The data set is described as follows: Displacement of [125I]Tyr14-NC/OFQ from human ORL1 receptor. Background: Displacement assays read how much labelled ligand stays bound in the presence of the test substance.
Data set [2] deals with T1, Nociceptin receptor. The data set is described as follows: Antagonist activity at human ORL1 receptor by [35S]GTPgammaS binding assay. The data set is classed as functional. A general note: GTPγS is a poorly hydrolysed GTP analogue; its binding reports G protein activation.
Data set [3] is described as follows: Metabolic stability in human liver microsomes assessed as drug remaining after 30 mins. It is filed as ADME, Microsome. Particulars: read-out: Stability. (Microsomes from liver hold many membrane-bound enzymes, among them those of drug oxidation.)
In data set [4] the target is T2, Mu-type opioid receptor (Homo sapiens, UniProt P35372). Kind of data set: Displacement of [3H]diprenorphin from human mu opioid receptor expressed in CHO cell membrane. It is filed as cell membranes.
T2 sequence (P35372 whole entry): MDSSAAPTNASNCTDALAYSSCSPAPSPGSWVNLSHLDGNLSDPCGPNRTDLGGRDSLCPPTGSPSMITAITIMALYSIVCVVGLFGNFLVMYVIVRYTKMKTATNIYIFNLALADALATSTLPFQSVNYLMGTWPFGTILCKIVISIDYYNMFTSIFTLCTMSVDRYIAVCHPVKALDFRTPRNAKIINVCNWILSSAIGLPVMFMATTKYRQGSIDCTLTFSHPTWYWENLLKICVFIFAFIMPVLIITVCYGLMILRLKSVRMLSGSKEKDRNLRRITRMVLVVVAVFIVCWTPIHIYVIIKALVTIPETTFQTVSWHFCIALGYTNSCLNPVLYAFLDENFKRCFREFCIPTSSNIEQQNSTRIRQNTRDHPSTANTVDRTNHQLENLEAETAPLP
Data set [5] deals with T3, Kappa-type opioid receptor (Homo sapiens, UniProt P41145). The data set is described as follows: Displacement of [3H]U-69593 from human kappa opioid receptor expressed in CHO cell membrane. The data set is classed as cell membranes.
T3 sequence (P41145 whole entry): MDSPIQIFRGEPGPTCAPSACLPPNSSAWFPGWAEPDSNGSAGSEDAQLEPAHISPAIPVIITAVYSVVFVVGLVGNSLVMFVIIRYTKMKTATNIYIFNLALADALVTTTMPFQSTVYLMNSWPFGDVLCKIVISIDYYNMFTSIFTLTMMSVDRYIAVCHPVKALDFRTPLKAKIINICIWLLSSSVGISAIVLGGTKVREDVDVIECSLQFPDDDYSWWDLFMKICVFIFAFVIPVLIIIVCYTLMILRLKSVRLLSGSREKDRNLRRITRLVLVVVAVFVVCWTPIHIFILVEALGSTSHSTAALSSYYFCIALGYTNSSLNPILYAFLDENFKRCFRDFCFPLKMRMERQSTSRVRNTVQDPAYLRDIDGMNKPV
For data set [6], the target named is T4, Delta-type opioid receptor (Homo sapiens, UniProt P41143). The data set is described as follows: Displacement of [3H]naltrindole from human delta opioid receptor expressed in CHO cell membrane. The data set is classed as cell membranes.
T4 sequence (P41143 whole entry): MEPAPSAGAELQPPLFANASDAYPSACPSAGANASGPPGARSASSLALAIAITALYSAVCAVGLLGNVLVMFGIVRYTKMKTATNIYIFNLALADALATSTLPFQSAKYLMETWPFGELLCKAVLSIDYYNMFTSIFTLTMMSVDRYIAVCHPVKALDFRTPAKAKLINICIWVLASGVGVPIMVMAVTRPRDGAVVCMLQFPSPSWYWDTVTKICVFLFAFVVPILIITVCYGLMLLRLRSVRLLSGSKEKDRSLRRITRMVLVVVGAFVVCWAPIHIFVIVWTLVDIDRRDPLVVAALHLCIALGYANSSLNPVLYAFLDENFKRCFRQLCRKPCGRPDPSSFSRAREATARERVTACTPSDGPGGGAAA
For data set [7], the target named is T2, Mu-type opioid receptor. Kind of data set: Agonist activity at human mu opioid receptor expressed in CHO cell membrane by [35S]GTPgammaS binding assay. The data set is classed as functional, cell membranes.
For data set [8], the target named is T3, Kappa-type opioid receptor. Kind of data set: Agonist activity at human kappa opioid receptor expressed in CHO cell membrane by [35S]GTPgammaS binding assay.
In data set [9] the target is T4, Delta-type opioid receptor. Kind of data set: Agonist activity at human delta opioid receptor expressed in CHO cell membrane by [35S]GTPgammaS binding assay. It is filed as functional, cell membranes.
In data set [10] the target is Synaptic vesicular amine transporter (Homo sapiens) (UniProt Q05940). The data set is described as follows: Inhibition of monoamine transporter at 10 uM.
Sequence of Synaptic vesicular amine transporter (Homo sapiens) (Q05940 whole entry): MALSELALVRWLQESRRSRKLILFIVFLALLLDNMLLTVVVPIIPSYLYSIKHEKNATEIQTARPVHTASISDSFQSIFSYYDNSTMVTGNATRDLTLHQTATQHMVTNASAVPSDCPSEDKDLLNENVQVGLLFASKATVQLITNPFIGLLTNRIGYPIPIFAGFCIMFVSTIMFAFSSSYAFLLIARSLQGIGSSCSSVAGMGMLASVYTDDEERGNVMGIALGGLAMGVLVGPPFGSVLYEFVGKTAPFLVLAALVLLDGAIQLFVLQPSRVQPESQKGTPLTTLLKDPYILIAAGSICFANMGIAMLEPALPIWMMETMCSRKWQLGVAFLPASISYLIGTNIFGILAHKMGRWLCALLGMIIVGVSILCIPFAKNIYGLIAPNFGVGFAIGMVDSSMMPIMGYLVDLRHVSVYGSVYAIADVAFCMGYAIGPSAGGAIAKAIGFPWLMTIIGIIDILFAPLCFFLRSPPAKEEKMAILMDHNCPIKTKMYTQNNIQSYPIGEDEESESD
For another data set, the target named is hERG (KCNH2) (Homo sapiens, UniProt Q12809). Kind of data set: Inhibition of human ERG at 10 uM.
Sequence of hERG (KCNH2) (Q12809 whole entry): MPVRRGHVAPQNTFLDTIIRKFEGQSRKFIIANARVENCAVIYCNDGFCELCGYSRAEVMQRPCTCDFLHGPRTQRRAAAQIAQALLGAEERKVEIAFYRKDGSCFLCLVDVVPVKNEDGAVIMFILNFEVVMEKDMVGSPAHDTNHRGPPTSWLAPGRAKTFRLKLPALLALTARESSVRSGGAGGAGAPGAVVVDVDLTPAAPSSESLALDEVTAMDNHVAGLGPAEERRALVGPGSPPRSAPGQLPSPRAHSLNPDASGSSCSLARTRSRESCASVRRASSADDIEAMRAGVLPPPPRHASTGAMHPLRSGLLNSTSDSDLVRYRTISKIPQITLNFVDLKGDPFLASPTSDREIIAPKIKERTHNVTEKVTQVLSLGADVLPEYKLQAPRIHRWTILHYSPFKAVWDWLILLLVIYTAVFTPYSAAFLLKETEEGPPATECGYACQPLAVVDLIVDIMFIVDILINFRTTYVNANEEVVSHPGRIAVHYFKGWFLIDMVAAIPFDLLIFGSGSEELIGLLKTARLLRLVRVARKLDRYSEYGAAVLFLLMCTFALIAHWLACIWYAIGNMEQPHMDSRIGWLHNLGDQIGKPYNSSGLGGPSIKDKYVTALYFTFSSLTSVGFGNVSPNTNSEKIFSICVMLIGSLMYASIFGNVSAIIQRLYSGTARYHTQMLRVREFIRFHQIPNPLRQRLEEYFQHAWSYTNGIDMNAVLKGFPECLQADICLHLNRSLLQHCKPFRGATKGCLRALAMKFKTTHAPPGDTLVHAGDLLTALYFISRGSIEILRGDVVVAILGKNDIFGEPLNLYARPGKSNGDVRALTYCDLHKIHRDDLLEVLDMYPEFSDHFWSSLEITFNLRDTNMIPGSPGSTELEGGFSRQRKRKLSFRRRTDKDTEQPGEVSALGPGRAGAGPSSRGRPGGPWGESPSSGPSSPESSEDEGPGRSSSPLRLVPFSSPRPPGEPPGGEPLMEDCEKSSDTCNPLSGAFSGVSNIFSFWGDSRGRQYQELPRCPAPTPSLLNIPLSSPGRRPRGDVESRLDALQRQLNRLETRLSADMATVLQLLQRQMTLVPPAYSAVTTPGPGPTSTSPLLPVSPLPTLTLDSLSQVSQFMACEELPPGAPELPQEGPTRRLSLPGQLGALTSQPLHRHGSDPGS
The target of data set [11] is 5-hydroxytryptamine receptor 2B (Homo sapiens) (UniProt P41595). Kind of data set: Inhibition of 5HT2B receptor at 10 uM.
Sequence of 5-hydroxytryptamine receptor 2B (Homo sapiens) (P41595 whole entry): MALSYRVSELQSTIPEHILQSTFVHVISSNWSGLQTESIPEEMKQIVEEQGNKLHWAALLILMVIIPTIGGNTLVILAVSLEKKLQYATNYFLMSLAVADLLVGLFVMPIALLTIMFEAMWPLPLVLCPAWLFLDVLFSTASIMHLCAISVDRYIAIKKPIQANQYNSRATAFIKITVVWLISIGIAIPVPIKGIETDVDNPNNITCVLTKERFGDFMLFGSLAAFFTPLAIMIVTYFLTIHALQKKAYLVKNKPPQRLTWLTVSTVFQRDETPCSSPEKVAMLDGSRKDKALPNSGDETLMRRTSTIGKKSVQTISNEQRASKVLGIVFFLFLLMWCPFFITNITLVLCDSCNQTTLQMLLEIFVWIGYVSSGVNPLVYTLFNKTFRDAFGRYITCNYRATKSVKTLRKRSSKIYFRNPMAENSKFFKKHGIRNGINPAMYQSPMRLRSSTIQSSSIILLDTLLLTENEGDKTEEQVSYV
A short description of data set [12]: Inhibition of sodium channel site 2 at 10 uM.
Data set [13] in a line: Bioavailability in ICR mouse at 3 mg/kg, po and 1 mg/kg, iv. It is filed as ADME, organism-based. Particulars: in vivo.
Data set [14] in a line: Bioavailability in Sprague-Dawley rat at 3 mg/kg, po and 1 mg/kg, iv. It is filed as ADME, organism-based. Particulars: in vivo.
Data set [15] is described as follows: Bioavailability in rhesus monkey at 3 mg/kg, po and 1 mg/kg, iv. The data set is classed as ADME, organism-based, Macaca mulatta. Particulars: in vivo.
Data set [16] can be described thus: Half life in ICR mouse at 3 mg/kg, po and 1 mg/kg, iv. The data set is classed as ADME, organism-based. Particulars: in vivo.
Data set [17] in a line: Half life in Sprague-Dawley rat at 3 mg/kg, po and 1 mg/kg, iv. The data set is classed as ADME, organism-based. Particulars: in vivo.
Data set [18] can be described thus: Half life in rhesus monkey at 3 mg/kg, po and 1 mg/kg, iv. Particulars: in vivo. It is filed as ADME, organism-based, Macaca mulatta.
Data set [19] in a line: Clearance in ICR mouse at 3 mg/kg, po and 1 mg/kg, iv. It is filed as ADME, organism-based. Particulars: in vivo.
Data set [20] in a line: Clearance in Sprague-Dawley rat at 3 mg/kg, po and 1 mg/kg, iv. It is filed as ADME, organism-based. Particulars: in vivo.
Data set [21] is described as follows: Clearance in rhesus monkey at 3 mg/kg, po and 1 mg/kg, iv. The data set is classed as ADME, organism-based, Macaca mulatta. Particulars: in vivo.
A short description of data set [22]: Ratio of drug level in brain to plasma in ICR mouse at 30 mg/kg, po after 60 mins. The data set is classed as ADME, organism-based. Further details: dose 30 mg/kg, route oral. Particulars: read-out: BPR.
The next data set deals with Mus musculus. The data set is described as follows: Biodistribution in ICR mouse brain at 30 mg/kg, po after 60 mins. It is filed as ADME, organism-based. Also on record: dose 30 mg/kg, route oral. Particulars: in vivo, 1 h.
Data set [23] can be described thus: Biodistribution in ICR mouse plasma at 30 mg/kg, po after 60 mins. It is filed as ADME, organism-based. Also on record: dose 30 mg/kg, route oral. Particulars: read-out: Drug uptake.

T1 sequence (P41146 whole entry): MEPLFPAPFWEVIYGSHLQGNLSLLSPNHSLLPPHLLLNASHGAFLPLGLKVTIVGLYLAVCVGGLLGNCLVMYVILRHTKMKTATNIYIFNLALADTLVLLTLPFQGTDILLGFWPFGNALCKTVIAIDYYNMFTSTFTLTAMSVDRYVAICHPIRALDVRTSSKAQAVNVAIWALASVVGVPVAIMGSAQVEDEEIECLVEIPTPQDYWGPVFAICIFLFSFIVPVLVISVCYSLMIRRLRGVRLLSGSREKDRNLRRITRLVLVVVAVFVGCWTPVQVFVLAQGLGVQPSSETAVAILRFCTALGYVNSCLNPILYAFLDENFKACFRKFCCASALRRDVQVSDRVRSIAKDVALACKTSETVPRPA

`CCC(CC)Sc1nc2cc(Cl)c(N3C[C@@H]4C[C@H]3CN4CCO)cc2[nH]1`: the IC50 at Nociceptin receptor [1] was 18 nM; at Nociceptin receptor [2], 27 nM. Further, the remaining at 0.5 h in data set [3] came to 63%.

On to `CCC(C)(CC)Sc1nc2cc(Cl)c(N3CCN(CCO)CC3)cc2[nH]1`, for which the remaining at 0.5 h in [3] was found to be 36%.

As to `C[C@@H]1CN(CCO)CCN1c1cc2[nH]c(SC(C)(C)C)nc2cc1Cl`, the IC50 at Nociceptin receptor [1] is 2.6 nM; on Nociceptin receptor [2] it was 0.65 nM; on Mu-type opioid receptor [4] it was 1900 nM; in data set [5], 120 nM; in data set [6], greater than 1000 nM; on Mu-type opioid receptor [7] it was 97 nM. In addition, the IC50 came to 180 nM in data set [8] and 1200 nM in [9]. In addition, in [3], the remaining at 0.5 h amounted to 87%. Further, the figures for the inhibition in [10], in data set [11] and in data set [12] were 52%, 52% and 68%, respectively. Moreover, the inhibition at 10 µM against hERG (KCNH2) is 86%. In addition, the bioavailability in [13] worked out at 33%; in data set [14] it was 29%; in [15], 37%. Moreover, the half-life in data set [16] is 48.6 min; in data set [17], 55.2 min; in data set [18], 186 min. For the same molecule, the clearance in data set [19] was found to be 121 mL/min/kg; in data set [20] it was 81 mL/min/kg; in data set [21], 20 mL/min/kg. The Kp at 1 h in data set [22] turned out to be 0.47. The Drug uptake in the data set on Mus musculus was 1.04 µmol/kg. Besides, the concentration at 1 h in data set [23] was 2380 nM.

Consider `CCC(CC)Sc1nc2cc(Cl)c(N3CCN(CCO)C(C)(C)C3)cc2[nH]1`, for which the figures for the IC50 at Nociceptin receptor [1] and on Nociceptin receptor [2] were 73 nM and 59 nM, respectively. Further, the remaining at 0.5 h in data set [3] was determined as 7%.

In the case of `CCC(CC)Sc1nc2cc(Cl)c(N3CCN(CCO)C(C)C3)cc2[nH]1` (racemic), the IC50 was found to be 8 nM on Nociceptin receptor [1] and 22 nM at Nociceptin receptor [2]. Further, the remaining at 0.5 h in data set [3] was 17%.

As to `CC(C)(C)Sc1nc2cc(Cl)c(N3CCN(CCO)CC3)cc2[nH]1`, the remaining at 0.5 h in data set [3] was 71%. In data set [6], this molecule returned an IC50 greater than 1000 nM.

As for `C[C@H]1CN(CCO)CCN1c1cc2[nH]c(SC(C)(C)C)nc2cc1Cl`, the IC50 at Nociceptin receptor [1] worked out at 1.1 nM; at Nociceptin receptor [2], 2.2 nM; at Mu-type opioid receptor [4], 67 nM; in [5] it was 5.3 nM; in data set [6], 238 nM; at Mu-type opioid receptor [7], 25 nM. For the same molecule, in data set [3], the remaining at 0.5 h stood at 70%. The results for the EC50 in [8] and in data set [9] were 18 nM and 14 nM, respectively. This molecule registered an Emax in data set [9] of 94%.

The term IC50 denotes the concentration that inhibits the measured activity by half. As a reminder, the inhibition is how much of the control response was suppressed. For orientation: bioavailability means the share of a dose that reaches the circulation, judged against a reference dose that is usually intravenous. In general, half-life refers to how long it takes for the measured level to halve. The term EC50 denotes the concentration needed to bring the measured effect to its halfway point. What is called Emax is the size of the effect at its maximum, as opposed to the concentration needed.
